System: P388/ADR (adriamycine resistance cell line) murine leukemia
Assay: MDR in vivo test: reversal of adriamycine resistance in P388/ADR murine leukemia (survival)
Details: P388/ADR mice, daily i.p. day 1-10
Experimental: Male B6D2F1 mice (18-21 g) were injected intraperitoneally with 1×10^5 P388/ADR cells at day 0. Daily intraperitoneal treatment with adriamycine, a test compound of formula (I) or a combination of both was installed from day 1 until day 10. Control animals received the vehicle (15% 4-OH-propyl-β-cyclodextrine in saline). Each group consisted of 8 animals. Adriamycine was dosed at a concentration of 1.25 mg/kg body weight, half the maximal tolerable dose of adriamycine in this treatment schedule. The test compound was dosed at 20, 10, 5, 2.5, 1.25 and 0.63 mg/kg either as single treatment or combined with adriamycine.
Survival of the animals was recorded each day and expressed as a percentage of the median survival in the treated groups compared to the median survival in the control group, the latter to be said to be 100%.
Table C-1 lists the effect of compound 6 and adriamycine on the survival of mice injected with P388/ADR leukemia.
doses of compound 6 and adriamycine are expressed as mg/kg body weight.
the column “Survival Days” give the median day of death after inoculation of 1×10^5 P388/ADR cells at day 0, with the minimum and maximum number of days shown in parantheses
column “% Change vs. ADR” give the difference in MST % of the different groups compared to the MST % in the adriamycine-monotherapy group.

Structure (SMILES) | Survival Days med (min-max) (compound 6 0 mg/kg, adriamycine 1.25 mg/kg) | Survival Days med (min-max) (compound 6 5 mg/kg, adriamycine 0 mg/kg) | MST % (compound 6 20 mg/kg, adriamycine 0 mg/kg, control = 100%) [oo]
COc1cccc2c1C(=O)c1c(O)c3c(c(O)c1C2=O)C[C@@](O)(C(=O)CO)C[C@@H]3O[C@H]1C[C@H](N)[C@H](O)[C@H](C)O1 [Adriamycine, adriamycine, reference compound] | 13 (12-15) days |  | 
COC(=O)c1cnc2n1CCc1ccccc1C2=C1CCN(CCc2ccc(OCc3ccc4ccccc4n3)cc2)CC1 [Compound 6, methyl 6,11-dihydro-11-[1-[2-[4-(2-quinolinylmethoxy)phenyl]ethyl]-4-piperidinylidene]-5H-imidazo[2,1-b][3]-benzazepine-3-carboxylate] |  | 11.5 (10-13) days | 1
